Data published in ChEMBL document CHEMBL5113530, “Butyrylation Meets Adipogenesis-Probed by a p300-Catalyzed Acylation-Specific Small Molecule Inhibitor: Implication in Anti-obesity Therapy” (J Med Chem, 2022).
Calls of active or inactive are those of the source. No cut-off for these calls is given here.

What was measured:
[1] = Toxicity in male Sprague-Dawley rat assessed as effect on body weight at 1000 mg/kg, po administered as single dose measured on day 14 (Rvb =231.13 +/- 18.38 g); format: organism-based; conditions: in vivo, 336 h, time 14 day
[2] = Toxicity in male Sprague-Dawley rat assessed as effect on body weight at 250 mg/kg, po administered as single dose measured on day 7 (reference value: 217.38 +/- 11.38 g); format: organism-based; conditions: in vivo, 168 h, time 7 day
[3] = Toxicity in female Sprague-Dawley rat assessed as effect on body weight at 500 mg/kg, po administered as single dose measured on day 1 (Rvb =152.21 +/- 6.58 g); format: organism-based; conditions: in vivo, 24 h, time 1 day
Mus musculus [4] = test: Anti-obesity activity in db/db mouse assessed as inhibition of slc2a4 expression at 50 mg/kg, po qd administered for 30 days by qRT-PCR analysis; format: functional, organism-based; conditions: time 30.0 day
Mus musculus [5] = test: Anti-obesity activity in db/db mouse assessed as daily food consumption […] at 50 mg/kg, po qd administered for 30 days and measured every week (reference value: 37.8 +/- 1.64 g); format: functional; conditions: time 30 day
3T3-L1 [6] = test: Anti-adipogenic activity against mouse 3T3-L1 cells assessed as downregulation of PPARG mRNA expression at 25 uM measured after 7 days by qRT-PCR analysis; format: functional, cell-based; conditions: time 7.0 day
3T3-L1 [7] = test: Anti-adipogenic activity against mouse 3T3-L1 cells assessed as downregulation of SLC2A4 mRNA expression at 25 uM measured after 7 days by qRT-PCR analysis; format: functional, cell-based; conditions: time 7.0 day
[8] = Toxicity in female Sprague-Dawley rat assessed as effect on body weight at 250 mg/kg, po administered as single dose measured on day 7 (Rvb =169.81 +/- 6.57 g); format: organism-based; conditions: in vivo, 168 h, time 7 day
[9] = system: Histone acetyltransferase p300 (Homo sapiens), Q09472 [C1438A]; test: Inhibition of His-tagged EP300 C1438A mutant catalytic domain catalyzed butyrylation (unknown origin) expressed in Escherichia coli BL21 (DE3) using Histone H3 as substrate at 25 uM preincubated with compound for 10 mins followed by butyryl-CoA addition and measured after 10 mins by Western blot analysis; conditions: time 20.0 min
[10] = Toxicity in male Sprague-Dawley rat assessed as average water intake measured per day at 250 mg/kg, po administered as single dose measured on day 14 (Rvb =34 ml/day); format: organism-based; conditions: in vivo, 336 h, time 14 day
Mus musculus [11] = test: Anti-obesity activity in db/db mouse assessed as reduction in H4K5 butyrylation level in epididymal fat pad at 50 mg/kg, po qd administered for 30 days by Immunoblotting analysis; format: functional, organism-based; conditions: time 30.0 day
[12] = Toxicity in female Sprague-Dawley rat assessed as effect on body weight at 1000 mg/kg, po administered as single dose measured on day 7 (Rvb =169.81 +/- 6.57 g); format: organism-based; conditions: in vivo, 168 h, time 7 day
3T3-L1 [13] = test: Anti-adipogenic activity against mouse 3T3-L1 cells assessed as downregulation of LEP mRNA expression at 25 uM measured after 7 days by qRT-PCR analysis; format: functional, cell-based; conditions: time 7.0 day
[14] = Mutagenicity in Salmonella typhimurium TA100 assessed as number of revertants measured per plate at 10 to 1000 incubated for 48 hrs in presence of rat liver S9 fraction by plate incorporation assay; format: toxicity; conditions: salmonella enterica subsp. enterica serovar typhimurium, s9, 48 h, dose 10-1000 µg
[15] = Toxicity in female Sprague-Dawley rat assessed as average food intake at 500 mg/kg, po administered as single dose measured on day 14 (Rvb =15.95 g/day); format: organism-based; conditions: in vivo, 336 h, time 14 day
[16] = Toxicity in male Sprague-Dawley rat assessed as average water intake measured per day at 250 mg/kg, po administered as single dose measured on day 1 (Rvb =32 ml/day); format: organism-based; conditions: in vivo, 24 h, time 1 day
[17] = Mutagenicity in Salmonella typhimurium TA102 assessed as number of revertants measured per plate at 10 to 1000 incubated for 48 hrs in presence of rat liver S9 fraction by plate incorporation assay; format: toxicity; conditions: salmonella enterica subsp. enterica serovar typhimurium, s9, 48 h, dose 10-1000 µg
[18] = Toxicity in female Sprague-Dawley rat assessed as average water intake measured per day at 500 mg/kg, po administered as single dose measured on day 1 (Rvb =25 ml/day); format: organism-based; conditions: in vivo, 24 h, time 1 day
Mus musculus [19] = test: Anti-obesity activity in C57BL6/J mouse model of high fat diet-induced obesity assessed as reduction in hepatic steatosis at 50 mg/kg by hematoxylin and eosin staining based assay; format: functional, organism-based
[20] = Toxicity in male Sprague-Dawley rat assessed as average water intake measured per day at 500 mg/kg, po administered as single dose measured on day 1 (Rvb =32 ml/day); format: organism-based; conditions: in vivo, 24 h, time 1 day
[21] = Toxicity in male Sprague-Dawley rat assessed as average food intake at 1000 mg/kg, po administered as single dose measured on day 7 (Rvb =20.24 g/day); format: organism-based; conditions: in vivo, 168 h, time 7 day
3T3-L1 [22] = test: Anti-adipogenic activity against mouse 3T3-L1 cells assessed as downregulation of ADIPOQ mRNA expression at 25 uM measured after 7 days by qRT-PCR analysis; format: functional, cell-based; conditions: time 7.0 day
[23] = system: Histone acetyltransferase p300 (Homo sapiens), Q09472 [C1438A]; test: Inhibition of […] His-tagged EP300 C1438A mutant catalytic domain catalyzed acetylation (unknown origin) expressed in Escherichia coli BL21 (DE3) using Histone H3 as substrate at 25 uM preincubated with compound for 10 mins followed by acetyl-CoA addition and measured after 10 mins by Western blot analysis; conditions: time 20.0 min
[24] = Mutagenicity in Salmonella typhimurium TA98 assessed as number of revertants measured per plate at 10 to 1000 incubated for 48 hrs in presence of rat liver S9 fraction by plate incorporation assay; format: toxicity; conditions: salmonella enterica subsp. enterica serovar typhimurium, s9, 48 h, dose 10-1000 µg
Mus musculus [25] = test: Anti-obesity activity in C57BL6/J mouse model of high fat diet-induced obesity assessed as daily food consumption measured per day per mouse at 50 mg/kg (reference value: 1.95547 +/- 0.23142 g); format: functional
[26] = Toxicity in male Sprague-Dawley rat assessed as average food intake at 1000 mg/kg, po administered as single dose measured on day 14 (Rvb =21.24 g/day); format: organism-based; conditions: in vivo, 336 h, time 14 day
[27] = Mutagenicity in Salmonella typhimurium TA97a assessed as number of revertants measured per plate at 10 to 1000 incubated for 48 hrs in absence of rat liver S9 fraction by plate incorporation assay; format: toxicity; conditions: salmonella enterica subsp. enterica serovar typhimurium, s9, 48 h, dose 10-1000 µg
[28] = Toxicity in male Sprague-Dawley rat assessed as average water intake measured per day at 250 mg/kg, po administered as single dose measured on day 7 (Rvb =30 ml/day); format: organism-based; conditions: in vivo, 168 h, time 7 day
[29] = Toxicity in female Sprague-Dawley rat assessed as average food intake at 500 mg/kg, po administered as single dose measured on day 1 (Rvb =17.84 g/day); format: organism-based; conditions: in vivo, 24 h, time 1 day
[30] = Toxicity in female Sprague-Dawley rat assessed as average water intake measured per day at 500 mg/kg, po administered as single dose measured on day 7 (Rvb =21 ml/day); format: organism-based; conditions: in vivo, 168 h, time 7 day

Sequence of Histone acetyltransferase p300 (Homo sapiens), Q09472 [C1438A] (Q09472 whole entry C1438A, the tested form may be a part): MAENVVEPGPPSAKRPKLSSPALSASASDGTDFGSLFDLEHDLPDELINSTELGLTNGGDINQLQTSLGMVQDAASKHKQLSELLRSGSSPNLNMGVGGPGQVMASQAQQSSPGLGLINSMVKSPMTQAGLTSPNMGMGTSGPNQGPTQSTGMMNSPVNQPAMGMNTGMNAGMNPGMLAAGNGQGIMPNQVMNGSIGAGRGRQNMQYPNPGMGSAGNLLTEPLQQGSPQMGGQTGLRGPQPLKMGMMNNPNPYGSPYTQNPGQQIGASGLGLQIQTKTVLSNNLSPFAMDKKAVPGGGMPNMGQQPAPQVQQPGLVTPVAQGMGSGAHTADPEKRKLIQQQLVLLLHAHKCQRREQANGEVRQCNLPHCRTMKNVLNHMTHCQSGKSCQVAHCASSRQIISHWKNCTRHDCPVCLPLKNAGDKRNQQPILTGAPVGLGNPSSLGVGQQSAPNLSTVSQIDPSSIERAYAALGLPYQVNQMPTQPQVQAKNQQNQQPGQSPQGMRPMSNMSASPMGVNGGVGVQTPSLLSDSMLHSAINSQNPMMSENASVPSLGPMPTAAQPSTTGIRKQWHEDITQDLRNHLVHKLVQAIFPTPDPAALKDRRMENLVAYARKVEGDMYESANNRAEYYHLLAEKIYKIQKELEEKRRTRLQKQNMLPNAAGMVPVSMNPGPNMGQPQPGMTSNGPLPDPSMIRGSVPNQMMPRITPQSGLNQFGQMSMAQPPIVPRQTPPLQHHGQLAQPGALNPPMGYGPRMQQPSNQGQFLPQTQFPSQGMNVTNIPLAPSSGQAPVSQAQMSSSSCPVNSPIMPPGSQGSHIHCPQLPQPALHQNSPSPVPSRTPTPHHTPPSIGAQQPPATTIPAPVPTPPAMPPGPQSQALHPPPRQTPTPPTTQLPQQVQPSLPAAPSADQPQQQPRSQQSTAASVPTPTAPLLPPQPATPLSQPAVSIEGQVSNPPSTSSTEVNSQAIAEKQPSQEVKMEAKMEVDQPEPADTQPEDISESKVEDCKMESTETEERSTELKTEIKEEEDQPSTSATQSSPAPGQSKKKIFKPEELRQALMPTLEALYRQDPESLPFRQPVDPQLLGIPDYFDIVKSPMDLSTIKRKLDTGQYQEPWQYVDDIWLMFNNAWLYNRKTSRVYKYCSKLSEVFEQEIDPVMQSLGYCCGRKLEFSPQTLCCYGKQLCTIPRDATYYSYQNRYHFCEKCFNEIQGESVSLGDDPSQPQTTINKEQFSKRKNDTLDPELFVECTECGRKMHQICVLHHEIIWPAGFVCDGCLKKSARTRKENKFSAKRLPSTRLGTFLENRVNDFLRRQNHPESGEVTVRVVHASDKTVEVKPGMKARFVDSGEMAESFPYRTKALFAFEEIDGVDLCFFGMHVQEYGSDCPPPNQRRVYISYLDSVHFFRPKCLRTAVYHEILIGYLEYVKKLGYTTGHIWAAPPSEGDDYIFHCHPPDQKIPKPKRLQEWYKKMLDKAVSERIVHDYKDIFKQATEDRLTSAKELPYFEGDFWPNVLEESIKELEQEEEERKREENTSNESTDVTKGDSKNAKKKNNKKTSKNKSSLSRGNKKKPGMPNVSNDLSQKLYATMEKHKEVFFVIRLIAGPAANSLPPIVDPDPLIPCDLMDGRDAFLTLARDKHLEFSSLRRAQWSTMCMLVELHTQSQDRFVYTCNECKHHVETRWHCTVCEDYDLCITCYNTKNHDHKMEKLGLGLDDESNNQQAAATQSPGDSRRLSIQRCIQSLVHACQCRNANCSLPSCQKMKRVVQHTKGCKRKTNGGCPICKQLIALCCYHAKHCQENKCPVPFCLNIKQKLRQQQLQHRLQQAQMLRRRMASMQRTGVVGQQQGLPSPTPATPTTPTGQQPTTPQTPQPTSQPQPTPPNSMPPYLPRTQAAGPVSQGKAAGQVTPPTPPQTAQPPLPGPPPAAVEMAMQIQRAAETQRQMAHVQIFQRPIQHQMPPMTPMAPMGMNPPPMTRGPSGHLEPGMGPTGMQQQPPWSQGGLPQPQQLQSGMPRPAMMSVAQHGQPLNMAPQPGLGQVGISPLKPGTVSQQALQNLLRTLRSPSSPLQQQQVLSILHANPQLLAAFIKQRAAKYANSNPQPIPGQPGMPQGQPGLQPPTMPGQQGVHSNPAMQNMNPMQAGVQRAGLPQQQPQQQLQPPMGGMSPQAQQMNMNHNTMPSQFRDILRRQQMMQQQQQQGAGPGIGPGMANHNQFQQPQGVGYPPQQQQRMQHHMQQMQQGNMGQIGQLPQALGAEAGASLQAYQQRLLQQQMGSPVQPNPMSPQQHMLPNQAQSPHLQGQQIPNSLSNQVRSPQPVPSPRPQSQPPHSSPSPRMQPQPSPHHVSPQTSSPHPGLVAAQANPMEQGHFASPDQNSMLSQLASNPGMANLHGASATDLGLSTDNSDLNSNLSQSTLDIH

Structure (SMILES): COc1ccc(C(=O)C2=C3OC(C)(C)[C@@H](CC=C(C)C)C[C@@]34C[C@@H](CC=C(C)C)C(C)(C)[C@](CC=C(C)C)(C2=O)C4=O)cc1OC
- Activity [1]: 226.19 g
- Activity [2]: 216.62 g
- Activity [3]: 153.32 g
- Activity (Mus musculus [4]): Active
- Activity (Mus musculus [5]): 34 g
- Activity (3T3-L1 [6]): Active
- Activity (3T3-L1 [7]): Active
- Activity [8]: 174.54 g
- inhibition [9]: Active
- Activity [10]: 34 mL
- Activity (Mus musculus [11]): Active
- Activity [12]: 178.58 g
- Activity (3T3-L1 [13]): Active
- Activity [14]: Non-Toxic
- Activity [15]: 17.09 g/day
- Activity [16]: 32 mL
- Activity [17]: Non-Toxic
- Activity [18]: 25 mL
- Activity (Mus musculus [19]): Active
- Activity [20]: 36 mL
- Activity [21]: 20.74 g/day
- Activity (3T3-L1 [22]): Active
- inhibition [23]: Active
- Activity [24]: Non-Toxic
- Activity (Mus musculus [25]): 2.041 g
- Activity [26]: 19.95 g/day
- Activity [27]: Non-Toxic
- Activity [28]: 27 mL
- Activity [29]: 18.22 g/day
- Activity [30]: 23 mL
